These are literature values, as cited in patent US20130095180A1, “TIME-DELAYED SUSTAINED RELEASE PHARMACEUTICAL COMPOSITION COMPRISING DAPOXETINE FOR ORAL ADMINISTRATION” (NAVIPHARM. CO., LTD., priority 2010, published 2013).

The structures appear in SMILES notation.

For this data set the following is noted: background characteristics of the drug.

As for `COc1ccc(CN=c2[nH]c(N3CCC[C@H]3CO)ncc2C(=O)NCc2ncccn2)cc1Cl` [Avanafil], the “Half Life” value is 5 to 11 h and the Tmax was 0.3 to 0.5 h. For `CCCc1nn(C)c2c(=O)[nH]c(-c3cc(S(=O)(=O)N4CCN(C)CC4)ccc3OCC)nc12` [Sildenafil], the “Half Life” value is 3 to 4 h. In the case of `CCCc1nc(C)c2c(=O)[nH]c(-c3cc(S(=O)(=O)N4CCN(CC)CC4)ccc3OCC)nn12` [Vardenafil], the “Half Life” value was 4 to 5 h and the time of peak concentration (Tmax) is 0.7 h.

Turning to `CCCOc1ccc(S(=O)(=O)NCCC2CCCN2C)cc1-c1nc2c(CCC)nn(C)c2c(=O)[nH]1` (centres unmarked) [Udenafil], the “Half Life” value was 7 to 12 h and the Tmax is 1 h. Consider `CN(C)[C@@H](CCOc1cccc2ccccc12)c1ccccc1` [Dapoxetine, (S)-(+)-N,N-dimethyl-1-phenyl-3-(1-Naphthalenyloxy)-propaneamine], for which the Tmax result is given as “about 1 hour”.
